From patent publication US20120005765A1, “ANIMAL MODEL FOR PARKINSON'S DISEASE” (Saint Louis University, priority 2010, published 2012)
“Also recorded” adds a separate entry of the source.

System: rats
Assay: Rotational asymmetry after apomorphine
Assay type: in vivo, rat
Conditions: apomorphine 0.4 mg/kg, n=6, p, 0.05 vs control rats
Experimental: Determination of DOPAL-induced Parkinson's disease-like behavior Injections of DOPAL or ALDH1A1 antisense oligo into rat SN. To determine if increased levels of DOPAL in SN produces a behavioral model of PD, 3 groups of rats were tested: unilateral SN injection of 4 μg DOPAL in 6 rats; unilateral SN injection of 0.56 μg antisense oligonucleotide (oligo) targeted to aldehyde dehydrogenase (ALDH1A1) mRNA, the DOPAL catabolic enzyme in 3 rats; 5 non-injected rats. After 5-7 weeks, rats were injected with apomorphine (0.4 mg/kg, subcutaneously) and rotational asymmetry determined in each group just prior to sacrifice. After the brains were fixed and sectioned, the SN, and forebrain were stained immunohistochemically for tyrosine hydroxylase immunoreactivity (THir). See Section 3.
Determination of rotational asymmetry. Rats first were injected subcutaneously with the dopamine agonist apomorphine (0.4 mg/kg) dissolved in 0.1 ascorbate saline solution. After waiting 5 min in their home cage, they were placed in a hemispheric rotation bowl 40 cm wide and 20 cm deep. Rotational behavior was then determined for 30 min and the number of ipsilateral and contralateral turns quantified by observation.
Rotational asymmetry was assessed to quantify the effect of unilateral depletions of striatal dopamine from disruptions of nigrostriatal circuitry. The rotational asymmetry behavior of rats (n=6) changed dramatically after injections with DOPAL (FIG. 5).
Behavioral asymmetry is considered the standard behavioral test for rodent models of Parkinson's disease. The column on the right is a summary of all the behaviors recorded in the rotational asymmetry test for all the rats ([…]).

O=CCc1ccc(O)c(O)c1 [DOPAL, 3,4-dihydroxyphenylacetaldehyde]
rotational asymmetry after unilateral DOPAL injection into SN: significantly preferred turning towards the side of the injection; also recorded: turning significantly towards the side of DOPAL injections
